From US20230002357A1, “7-PYRIMIDINE-2-YL-OXY-INDAZOLE DERIVATIVES AND THEIR USE AS HERBICIDES” (SYNGENTA CROP PROTECTION AG, priority 2019, published 2023)

How the values were obtained:
Format in all cases: in vivo
Settings in all cases: 250 g/ha, evaluated after 13 days
[1] = tested on: Amaranthus retoflexus (AMARE); assay: Post-emergence Test, glasshouse, AMARE
Protocol: (§1) Seeds of a variety of test species are sown in standard soil in pots Amaranthus retoflexus (AMARE), Echinochloa crus-galli (ECHCG), Setaria faberi (SETFA)). After cultivation for one day (pre-emergence) or after 8 days cultivation (post-emergence) under controlled conditions in a glasshouse (at 24/16° C., day/night; 14 hours light; 65% humidity), the plants are sprayed with an aqueous spray solution derived from the formulation of the technical active ingredient in acetone/water (50:50) solution containing 0.5% Tween™ 20 (polyoxyethelyene sorbitan monolaurate, CAS RN 9005-64-5). Compounds are applied at 250 g/ha unless otherwise stated. The test plants are then grown in a glasshouse under controlled conditions in a glasshouse (at 24/16° C., day/night; 14 hours light; 65% humidity) and watered twice daily. After 13 days for pre- and post-emergence, the test is evaluated for the percentage damage caused to the plant. The biological activities are shown in the following table on a five-point scale (5=81-100%; 4=61-80%; 3=41-60%; 2=21-40%; 1=0-20%).

ABUTH [2] = assay: Post-emergence Test, glasshouse, ABUTH
Protocol: as §1

IPOHE [3] = assay: Pre-emergence Test, glasshouse, IPOHE
Protocol: as §1

[4] = tested on: Echinochloa crus-galli (ECHCG); assay: Pre-emergence Test, glasshouse, ECHCG
Protocol: as §1

[5] = tested on: Amaranthus retoflexus (AMARE); assay: Pre-emergence Test, glasshouse, AMARE
Protocol: as §1

Setaria faberi (SETFA) [6] = assay: Pre-emergence Test, glasshouse, SETFA
Protocol: as §1

IPOHE [7] = assay: Post-emergence Test, glasshouse, IPOHE
Protocol: as §1

ABUTH [8] = assay: Pre-emergence Test, glasshouse, ABUTH
Protocol: as §1

Setaria faberi (SETFA) [9] = assay: Post-emergence Test, glasshouse, SETFA
Protocol: as §1

[10] = tested on: Echinochloa crus-galli (ECHCG); assay: Post-emergence Test, glasshouse, ECHCG
Protocol: as §1

| SMILES | percentage damage caused to the plant, five-point scale, AMARE [1] | percentage damage caused to the plant, five-point scale, ABUTH (ABUTH [2]) | percentage damage caused to the plant, five-point scale, IPOHE (IPOHE [3]) | percentage damage caused to the plant, five-point scale, ECHCG [4] | percentage damage caused to the plant, five-point scale, AMARE [5] | percentage damage caused to the plant, five-point scale, SETFA (Setaria faberi (SETFA) [6]) | percentage damage caused to the plant, five-point scale, IPOHE (IPOHE [7]) | percentage damage caused to the plant, five-point scale, ABUTH (ABUTH [8]) | percentage damage caused to the plant, five-point scale, SETFA (Setaria faberi (SETFA) [9]) | percentage damage caused to the plant, five-point scale, ECHCG [10] |
| --- | --- | --- | --- | --- | --- | --- | --- | --- | --- | --- |
| FC(F)(F)CCCn1nnc2cc(Cl)cc(Oc3ncc(Cl)cn3)c21 [Compound 1.050] | 5 (5=81-100%) | 2 (2=21-40%) | 1 (1=0-20%) | 1 (1=0-20%) | 1 (1=0-20%) | 1 (1=0-20%) | 3 (3=41-60%) | 1 (1=0-20%) | 1 (1=0-20%) | 1 (1=0-20%) |
| FC(F)(F)CCCn1nc(Cl)c2c(Cl)ccc(Oc3ncc(Cl)cn3)c21 [Compound 1.026] | 5 (5=81-100%) | 4 (4=61-80%) | 1 (1=0-20%) | 5 (5=81-100%) | 5 (5=81-100%) | 3 (3=41-60%) | 2 (2=21-40%) | 2 (2=21-40%) | 5 (5=81-100%) |  |
| FC(F)(F)CCCn1ncc2c(Br)ccc(Oc3ncc(Cl)cn3)c21 [Compound 1.025] | 2 (2=21-40%) | 2 (2=21-40%) | 1 (1=0-20%) |  | 1 (1=0-20%) | 2 (2=21-40%) | 1 (1=0-20%) | 1 (1=0-20%) | 2 (2=21-40%) |  |
| N#Cc1cc(Oc2ncc(Cl)cn2)c2c(c1)c(Cl)nn2CCCC(F)(F)F [Compound 1.030] | 4 (4=61-80%) | 1 (1=0-20%) | 1 (1=0-20%) |  | 1 (1=0-20%) | 1 (1=0-20%) | 1 (1=0-20%) | 1 (1=0-20%) | 2 (2=21-40%) | 2 (2=21-40%) |
| FC(F)(F)CCCn1nc(Cl)c2c(Br)ccc(Oc3ncc(Cl)cn3)c21 [Compound 1.028] | 5 (5=81-100%) | 2 (2=21-40%) | 1 (1=0-20%) |  | 4 (4=61-80%) | 2 (2=21-40%) | 1 (1=0-20%) | 1 (1=0-20%) | 3 (3=41-60%) |  |
| Fc1cc(Cl)cnc1Oc1cccc2c(Cl)nn(CCCC(F)(F)F)c12 [Compound 1.032] | 5 (5=81-100%) | 3 (3=41-60%) | 1 (1=0-20%) | 3 (3=41-60%) | 3 (3=41-60%) | 4 (4=61-80%) | 3 (3=41-60%) | 1 (1=0-20%) |  | 3 (3=41-60%) |
| N#Cc1ccc(Oc2ncc(Cl)cn2)c2c1c(Cl)nn2CCCC(F)(F)F [Compound 1.029] | 4 (4=61-80%) | 1 (1=0-20%) | 1 (1=0-20%) |  | 2 (2=21-40%) | 1 (1=0-20%) | 1 (1=0-20%) | 1 (1=0-20%) | 1 (1=0-20%) |  |
| N#Cc1cc(Oc2ncc(Cl)cn2)c2c(cnn2CCCC(F)(F)F)c1 [Compound 1.024] | 2 (2=21-40%) | 2 (2=21-40%) | 1 (1=0-20%) |  | 4 (4=61-80%) | 4 (4=61-80%) | 1 (1=0-20%) | 1 (1=0-20%) | 1 (1=0-20%) |  |
| FC(F)(F)CCCn1nc(Cl)c2c(Cl)cc(Cl)c(Oc3ncc(Cl)cn3)c21 [Compound 1.027] | 4 (4=61-80%) | 2 (2=21-40%) | 1 (1=0-20%) |  | 4 (4=61-80%) | 1 (1=0-20%) | 1 (1=0-20%) | 1 (1=0-20%) | 3 (3=41-60%) | 4 (4=61-80%) |
| Cc1nn(CCCC(F)(F)F)c2c(Oc3ncc(Cl)cn3)cccc12 [Compound 1.021, 7-(5-chloropyrimidin-2-yl)oxy-3-methyl-1-(4,4,4-trifluorobutyl)indazole] | 1 (1=0-20%) | 4 (4=61-80%) | 2 (2=21-40%) |  | 5 (5=81-100%) | 5 (5=81-100%) | 3 (3=41-60%) | 3 (3=41-60%) | 4 (4=61-80%) |  |
| FC(F)(F)CCCn1nc(C(F)(F)F)c2cccc(Oc3ncc(Cl)cn3)c21 [Compound 1.022, 7-(5-chloropyrimidin-2-yl)oxy-1-(4,4,4-trifluorobutyl)-3-(trifluoromethyl)indazole] | 5 (5=81-100%) | 5 (5=81-100%) | 4 (4=61-80%) | 5 (5=81-100%) | 5 (5=81-100%) | 5 (5=81-100%) | 4 (4=61-80%) | 4 (4=61-80%) | 5 (5=81-100%) |  |
| FC(F)(F)CCCn1nnc2cccc(Oc3ncc(Cl)cn3)c21 [Compound 1.020, 7-(5-chloropyrimidin-2-yl)oxy-1-(4,4,4-trifluorobutyl) benzotriazole] | 2 (2=21-40%) | 3 (3=41-60%) | 2 (2=21-40%) |  | 5 (5=81-100%) | 5 (5=81-100%) | 2 (2=21-40%) | 4 (4=61-80%) | 5 (5=81-100%) |  |
| COc1cc(Oc2cccc3nnn(CCCC(F)(F)F)c23)ncn1 [Compound 1.023] | 1 (1=0-20%) | 1 (1=0-20%) | 1 (1=0-20%) |  | 1 (1=0-20%) | 1 (1=0-20%) | 1 (1=0-20%) | 1 (1=0-20%) | 1 (1=0-20%) |  |
| FC(F)(F)CCCn1ncc2c(Cl)cc(Cl)c(Oc3ncc(Cl)cn3)c21 [Compound 1.018] | 1 (1=0-20%) | 1 (1=0-20%) | 1 (1=0-20%) | 1 (1=0-20%) |  | 1 (1=0-20%) | 1 (1=0-20%) | 1 (1=0-20%) | 1 (1=0-20%) | 1 (1=0-20%) |
